Data set [1] has as its system Mus musculus. Put plainly: Antiedematogenic effect in Swiss mouse assessed as inhibition of CFA-induced paw edema at 300 mg/kg, po after 2 hrs. Format: functional.
Data set [2] relates to Mus musculus. In words: Antihyperalgesic effect in Swiss mouse assessed as inhibition of CFA-induced paw withdrawal threshold at 300 mg/kg, po after 2 hrs. Type of data set: functional.
Data set [3] deals with Mus musculus. Put plainly: Locomotor activity in Swiss mouse assessed as motor impairment at 300 mg/kg, po by open-field test. Type of data set: toxicity, organism-based. Particulars: in vivo.
Data set [4] relates to Mus musculus. In words: Locomotor activity in Swiss mouse assessed as motor impairment at 300 mg/kg, po by rotarod test. Format: toxicity, organism-based. The following applies: in vivo.
Data set [5] concerns Mus musculus. Put plainly: Antihyperalgesic effect in po dosed Swiss mouse assessed as inhibition of CFA-induced paw withdrawal threshold after 2 hrs. Type of data set: functional.
The test system of data set [6] is Mus musculus. Put plainly: Antihyperalgesic effect in Swiss mouse assessed as inhibition of CFA-induced paw withdrawal threshold at 300 mg/kg, po after 0.5 to 6 hrs. Type of data set: functional, organism-based.
Data set [7] relates to Mus musculus. In words: Antiedematogenic effect in Swiss mouse assessed as inhibition of CFA-induced paw edema at 300 mg/kg, po after 1 to 6 hrs. Type of data set: functional, organism-based.

The values that follow come from ChEMBL document CHEMBL3612022, “Regioselectively controlled synthesis of 3(5)-(trifluoromethyl)pyrazolylbenzenesulfonamides and their effects on a pathological pain model in mice” (Eur J Med Chem, 2015).

Activity calls are given as the source filed them.

Regarding `NS(=O)(=O)c1ccc(N2N=C(c3ccc(Br)cc3)CC2(O)C(F)(F)F)cc1` (stereo not drawn), the inhibition in vivo at 300 mg/kg was determined as 46% with Mus musculus [1] and 57% in the data set with Mus musculus [2]. The Activity result with Mus musculus [3] and in the data set on Mus musculus [4] was “Non-toxic” in each case.
Consider `COc1ccc(C2=NN(c3ccc(S(N)(=O)=O)cc3)C(O)(C(F)(F)F)C2)cc1` (stereo not drawn), for which the inhibition in vivo at 300 mg/kg in the data set on Mus musculus [1] was 46%. The inhibition entry in the data set with Mus musculus [2] was “inactive”. The Activity entry with Mus musculus [3] and with Mus musculus [4] was “Non-toxic” throughout.
In the case of `NS(=O)(=O)c1ccc(N2N=C(c3ccc(Cl)cc3)CC2(O)C(F)(F)F)cc1` (stereo not drawn), the inhibition in vivo at 300 mg/kg in the data set with Mus musculus [2] came to 57%. Also, the Activity result with Mus musculus [3] and in the data set on Mus musculus [4] was “Non-toxic” throughout.
Regarding `NS(=O)(=O)c1ccc(N2N=C(c3ccco3)CC2(O)C(F)(F)F)cc1` (stereo not drawn), the inhibition in vivo at 300 mg/kg in the data set on Mus musculus [1] is 48%. In addition, the inhibition entry in the data set on Mus musculus [2] was “inactive”. Further, the Activity result in the data set on Mus musculus [3] and in the data set on Mus musculus [4] was “Non-toxic” throughout.
As to `NS(=O)(=O)c1ccc(N2N=C(c3ccccc3)CC2(O)C(F)(F)F)cc1` (stereo not drawn), the values for the inhibition in vivo at 300 mg/kg with Mus musculus [1] and in the data set on Mus musculus [2] were 44% and 52%, respectively. Besides, the Activity entry in the data set on Mus musculus [3] and in the data set with Mus musculus [4] was “Non-toxic” in each case.
For the molecule `NS(=O)(=O)c1ccc(N2N=C(c3ccc(F)cc3)CC2(O)C(F)(F)F)cc1` (stereo not drawn), the inhibition in vivo at 300 mg/kg with Mus musculus [2] came out at 62%. Moreover, the Activity entry with Mus musculus [3] and in the data set on Mus musculus [4] was “Non-toxic” in each case.
As to `Cc1ccc(-c2cc(C(F)(F)F)nn2-c2ccc(S(N)(=O)=O)cc2)cc1` [CELECOXIB], the inhibition in vivo at 300 mg/kg with Mus musculus [1] was found to be 53%; with Mus musculus [2], 77%. Besides, the IC in the data set with Mus musculus [5] came out at 652.1 mg/kg. Besides, in the data set on Mus musculus [6], the inhibition result was “Active”.
As to `Cc1ccc(C2=NN(c3ccc(S(N)(=O)=O)cc3)C(O)(C(F)(F)F)C2)cc1` (stereo not drawn), the results for the inhibition in vivo at 300 mg/kg in the data set on Mus musculus [1] and in the data set on Mus musculus [2] were 45% and 64%, respectively. For the same molecule, the IC in the data set on Mus musculus [5] was 539.3 mg/kg. Besides, the inhibition entry in the data set with Mus musculus [7] and with Mus musculus [6] was “Active” in each case. Also, the Activity entry in the data set with Mus musculus [3] and in the data set on Mus musculus [4] was “Non-toxic” in each case.
